From patent US20080199439A1, “IAP-binding cargo molecules and peptidomimetics for use in diagnostic and therapeutic methods” (priority 2003, published 2008)

Assays:
[1] = tested on: A498 cells; experiment: Competition of AVPC-badan emission by AVPF in A498 cells; type: cell-based; details: AVPC-badan 8 mM, 100 equivalents AVPF, 36 minutes, emission 385-470 nm and >505 nm
Experimental: (§1) The emission between 435-485 nm after exposure of cells for 30 minutes is shown in each case. […] The emission between 385-470 nm and >505 nm after exposure of cells for 36 minutes is shown in each case;
(§2) Thus, the primary action of the IAP binding cargo molecule appears to be by binding to IAP proteins, thus releasing any activated caspases and thereby promoting apoptosis.

[2] = tested on: HeLa cells; experiment: Competition of AVPC-badan emission by AVPF in HeLa cells; type: cell-based; details: AVPC-badan 0.1 mM, 100 equivalents AVPF, 30 minutes, emission 435-485 nm
Experimental: as §1, §2

[3] = tested on: HeLa cells; design: dose or concentration left out as unconfirmed; details: 48 minutes, confocal microscopy
[4] = target: recombinant XIAP-BIR3 (Homo sapiens, UniProt P98170); details: 550 nm peak of free AVPC-badan; binding to recombinant XIAP-BIR3
From the text: Without wishing to be bound by theory, upon binding to an IAP protein, the labeled IAP-binding cargo molecule packs into the groove of the BIR3 (SEQ ID NO: 15) causing a detectable shift in emission maximum and intensity when the environment of the fluorophore changes from water to the hydrophobic pocket of the protein.

[5] = tested on: HeLa cells; details: compared with Smac N-terminal tetrapeptide AVPI
From the text: This example illustrates the use of an labeled IAP-binding cargo molecule to bind with IAP within cells and tissues and inducing apoptosis.

Chain of recombinant XIAP-BIR3 (P98170 265-330 limits assumed): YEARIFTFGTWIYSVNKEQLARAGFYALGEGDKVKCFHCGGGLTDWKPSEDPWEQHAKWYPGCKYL

Row | Compound | effect of competitor on intensity of AVPC-badan emission [1] | effect of competitor on intensity of AVPC-badan emission [2] | intracellular localization of the peptide [3] | change of emission peak and intensity on binding [4] | induction of apoptosis (kinetics) [5]
1 | AVPF: competitor peptide AVPF (SEQ ID NO: 19) | intensity of emission was found to diminish | intensity of emission was found to diminish |  |  | 
2 | CC(N)C(=O)NC(C(=O)N1CCCC1C(=O)NC(CSCC(=O)c1ccc2cc(N(C)C)ccc2c1)C(=O)O)C(C)C (centres unmarked) [AVPC-badan] |  |  | diffuse cytosolic distribution | shifts to 542 nm and increases in intensity | induced apoptosis with kinetics similar to those of the Smac N-terminal tetrapeptide AVPI
